Numbers after ± are expanded uncertainties.
Test: xn = mol fraction of the nth substance listed
Details: 101.3 kPa, Liquid, Vibrating tube method

mass density (303.15 K, x1 = 0.667) [kg/m3] | mass density (313.15 K, x1 = 0.667) [kg/m3] | mass density (323.15 K, x1 = 0.667) [kg/m3] | mass density (333.15 K, x1 = 0.667) [kg/m3] | mass density (343.15 K, x1 = 0.667) [kg/m3] | mass density (353.15 K, x1 = 0.667) [kg/m3] | mass density (303.15 K, x2 = 0.333) [kg/m3] | mass density (313.15 K, x2 = 0.333) [kg/m3] | mass density (323.15 K, x2 = 0.333) [kg/m3] | mass density (333.15 K, x2 = 0.333) [kg/m3] | mass density (343.15 K, x2 = 0.333) [kg/m3] | mass density (353.15 K, x2 = 0.333) [kg/m3] | Compound
1239.7 ± 3.4 | 1234.6 ± 3.3 | 1229.4 ± 3.3 | 1224.3 ± 3.3 | 1219.2 ± 3.3 | 1214 ± 3.3 | – | – | – | – | – | – | C[N+](C)(C)CCO.[Cl-] [choline chloride] + O=C[C@H](O)[C@@H](O)[C@H](O)[C@H](O)CO
– | – | – | – | – | – | 1125.4 ± 3.1 | 1118.9 ± 3.1 | 1112.5 ± 3 | 1106.2 ± 3 | 1099.8 ± 3 | 1093.5 ± 3 | OCCOCCOCCO [triethylene glycol] + C[N+](C)(C)CCO.[Cl-]

Source: the NIST ThermoML archive (doi:10.1016/j.tca.2016.11.008)
